# Entries after “also recorded” stand apart in the source; their conditions may differ. Positions of bridges follow the written chain, without caps; N, C: chain ends. No end group written: not given here.
# B1: RMS-P3/RR peptide (peptide)
# peptide: CMGTINTRTRRC
# modifications: not fully specified (bridges); also: cyclic peptide, mode of cyclisation not given here
# Columns and labels:
# RD cells = assay: phage binding to RD cells; format: cell-based
# Procedure: (§1) Figure 1 Validation of selected phages binding on RMS cells in vivo and in vitro. (A) Quantification of binding of single phage clones to different cell lines. Six phages selected from in vitro and in vivo screenings were validated individually in binding assays to three RMS cell lines (embryonal RMS: RD; alveolar RMS: Rh30 and Rh4) as well as to normal myoblasts (SkMC-c) and fibroblast cells (MRC-5). Phage clones are ordered according to the frequency of occurrence. Binding was calculated over non-recombinant T7, depicted are mean values ± SD of three independent experiments. (B) RMS-P3 and RMS-P6 phage distribution in RD mouse xenografts. Homing of phages to tumor was compared to control organs. Binding was normalized over phage T7 and tissue weight. Mean values ± SD of four independent experiments are shown. Numerical values for tumor to organ ratios are indicated above the bars. (C) Validation of RMS-P3 peptide sequence by competition of phage binding. 10^6 RD cells were incubated for 30 min with increasing concentrations of RMS-P3 peptide ([…]) or control peptide ([…]). Then, phages (10^9 pfu) were added for 1 h. Phage binding was normalized over non-recombinant T7. Data are presented as percentage of maximal phage binding obtained in the absence of synthetic peptide. Error bars indicate mean ± SD from three independent experiments. […]
# Figure 3 Identification of the receptor for RMS-P3. […] Phage binding was quantified over non-recombinant T7 and compared to the binding of wild type phage RMS-P3. […] After tail vein injection of both FITC-RMS-P3/RR or control peptide RMS-P3/AA and circulation of 10 min, mice were perfused, tumors and control organs were dissected and FITC-peptide distribution (green) was evaluated in cryosections under fluorescence microscopy. […] (C) Expression of proprotein convertases (PCs) measured by microarray profiling of 9 RMS cell lines and 30 RMS biopsy samples. […] Immature membrane-bound furin was detected at 103 kD, mature furin at 97 kD. […]
# [1] = tested on: RD xenograft tumors and control organs; assay: FITC-peptide distribution in xenograft mice; format: in vivo, mouse; conditions: RD xenografts, i.v., 10 min circulation
# Procedure: Figure 2 FITC-labeled RMS-P3 binding in vitro and distribution in vivo. (A) Visualization of FITC-RMS-P3 peptide binding in normal and cancer cells in vitro. Cultured myoblasts (SkMC-c), fibroblasts (MRC-5), RMS cells (RD) and breast carcinoma cells (MDA-MB 231) were incubated with 100 nM FITC-RMS-P3 peptide for 1 h at 37°C. Fluorescence microscopy of fixed cells is shown. (B) Living RD cells were incubated with FITC-RMS-P3 peptide, subsequently fixed and stained with giantin (red). Colocalization is shown in the merged picture by yellow. Blue staining (DAPI) indicates the nuclei. Magnifications: 40x, scale bars: 20 µm. (C) Distribution of FITC-RMS-P3 and control peptide FITC-RMS-Pctrl in mice xenografts of RD cells. FITC-RMS-P3 or control FITC-RMS-Pctrl peptide were injected i.v. and after 10 minutes of circulation, mice were perfused and tumor and control organs were collected. Cryosections were double-labeled with mouse endothelial vessels markers CD31 and MECA-32 (red). Nuclear staining by DAPI is shown in blue. Magnifications: 40x, scale bars: 20 µm.
# Figure 3 Identification of the receptor for RMS-P3. (A) Alanine-scan of the RMS-P3 sequence. RMS-P3 was mutated by replacing each amino acid residue with alanine (codon GCT). All phage mutants were tested individually for binding to RD cells in vitro. Mutated residues are indicated in bold. Phage binding was quantified over non-recombinant T7 and compared to the binding of wild type phage RMS-P3. Depicted are mean values ± SD of three independent experiments. […] (B) FITC-RMS-P3/RR and FITC-RMS-P3/AA distribution in RD xenograft mice. After tail vein injection of both FITC-RMS-P3/RR or control peptide RMS-P3/AA and circulation of 10 min, mice were perfused, tumors and control organs were dissected and FITC-peptide distribution (green) was evaluated in cryosections under fluorescence microscopy. Blood endothelial stainings (CD31 and MECA32) are shown in red, nuclear staining in blue (DAPI). Magnification: 20x, scale bar 50 µm. (C) Expression of proprotein convertases (PCs) measured by microarray profiling of 9 RMS cell lines and 30 RMS biopsy samples. Expression of PCs recognizing the cleavage site R(X)(R/K)(R/K) were considered. Each cell line or biopsy is represented by one data point. (D) Furin expression in different cell lines. Normal myoblasts (SkMC-c), fibroblasts (MRC-5), RMS cell lines (RD, Rh4, Rh30), furin-deficient colorectal carcinoma cells (LoVo) and furin-positive breast carcinoma cells (MBA-MB 231) were tested for furin expression by qRT-PCR (upper graph). […] Western blot (lower panels). Immature membrane-bound furin was detected at 103 kD, mature furin at 97 kD. PCNA was used as loading control.
# Figure 6 FITC-RMS-P3/RR and FITC-RMS-P3/AA distribution in mice bearing RD xenografts. Peptides were injected i.v. and after circulation the mice were perfused, tumors and control organs were removed and peptide distribution was evaluated on cryosections by fluorescence microscopy. Depicted are overlay images (B, upper left panel) and single channel pictures. FITC-peptide stainings (green), either furin or endothelial stainings (CD31, MECA32) in red and cell nuclei in blue (DAPI) are shown. Magnification: 40x, scale bars 50 µm.
# Supplementary file pone.0010445.s002.tif: Figure S2 Subcellular localization of FITC-RMS-P3 peptide. (A, B) FITC-RMS-P3/RR cell surface and intracellular localization. RD cells were incubated with 100 nM FITC-RMS-P3 peptide in vitro for 30 min at 4°C (A) or 37°C (B), respectively. Fixed cells were stained with undiluted 5.1H11 hybridoma supernatant against the human muscle-specific cell surface antigen N-CAM (red). A secondary rabbit anti-mouse Cy3 antibody (1∶300, Invitrogen) was used for detection. […] Cell nuclei were visualized with DAPI. Nuclei are indicated in grey. Magnification: 63x, scale bars: 20 µm. […]
# membrane-bound furin = assay: peptide affinity chromatography, RD-FUR lysate; format: binding; conditions: western blot, 97kDa
# Procedure: (§2) Figure 5 RMS-P3/RR peptide binds directly to furin and inhibits its activity. Lysates of RD-FUR cells (approximately 1 mg of total protein, upper rows) or purified recombinant furin (250 ng; lower rows) were loaded on a RMS-P3/RR column (A) or on the control peptide column RMS-P3/AA (B). The columns were washed 10 times to remove unbound furin. The loaded RMS-P3/RR-column was eluted first with control peptide RMS-P3/AA, then with peptide RMS-P3/RR. The RMS-P3/AA column was eluted first with RMS-P3/RR and subsequently cross-eluted with the control peptide RMS-P3/AA. The presence of furin in aliquots from the columns (1) after binding, (2) flow through, (3) last wash, (4) control elution and (5) competitive elution with RMS-P3/RR (in A) and […] (in B), respectively, was detected by western blotting. (C) Fixed amounts of recombinant furin (3.3U) were incubated with increasing concentrations of RMS-P3/RR peptide or with control peptide (RMS-P3/AA). Furin activity was measured with the fluorogenic substrate Boc-RRVR-AMC at excitation 370 nm/emission 460 nm. The results of three independent experiments ± SD are shown.
# (§3) RMS-P3/RR or control peptide RMS-P3/AA were dissolved in 0.2 M phosphate buffer pH 7.2 to 1 mg/ml and covalently linked to NHS-activated sepharose matrix SpinTrapTM (GE Healthcare, Amersham Biosciences, Switzerland). […]
# recombinant human furin [2] = assay: peptide affinity chromatography, recombinant furin; format: binding; conditions: recombinant human furin without membrane-domain (81 kD), overnight at 4°C, western blot
# Procedure: as §2, §3
# [3] = tested on: RMS cells (RD, Rh4, Rh30); assay: phage binding to RMS cell lines versus normal cells; format: cell-based; conditions: control phage
# Procedure: as §1
# MDA-MB 231 cells = assay: phage binding to breast carcinoma cells; format: cell-based; conditions: compared to myoblasts and fibroblasts; p<0.05
# Procedure: (§4) Supplementary file pone.0010445.s001.tif: Figure S1 Phage selection and validation on RMS cells in vivo and in vitro. (A) Biopanning on RD cells in vitro after negative selection on myoblasts (panning I) and (B) fibroblasts (panning II). Enrichment was calculated over non-recombinant phage T7. (C) In vivo selection in Rh4 xenografts. Phages from in vitro selection before enrichment were pooled and used for in vivo selection in Rh4 xenografts. Phages were injected in the tail vein and after 10 min circulation unbound phages were washed by perfusion. Phage binding to tumors and control organs was calculated over non-recombinant phage T7. (D) RMS-P3 and RMS-P6 phage distribution in Rh4 xenografts. Homing of phages in mouse xenografts bearing Rh4 tumors was determined and compared to control organs. Binding was normalized over phage T7 and tissue weight. Mean values of three independent experiments are shown. Numerical values for tumor to organ ratios are indicated above the bars. (E) Quantification of binding of RMS-P3 phage to a panel of tumor cell lines: RMS (RD, Rh30, Rh4), breast tumor (MDA-MB 231), glioblastoma (U87MG), melanoma (A365); and normal myoblasts (SkMC-c) and fibroblast cells (MRC-5). Mean values ± SD of three independent experiments are depicted. (0.55 MB TIF) Click here for additional data file.
# U87MG cells = assay: phage binding to glioblastoma cells; format: cell-based; conditions: compared to myoblasts and fibroblasts; p<0.05
# Procedure: as §4
# A365 cells = assay: phage binding to melanoma cells; format: cell-based; conditions: compared to myoblasts and fibroblasts; p<0.05
# Procedure: as §4
# RD xenograft tumors = assay: phage homing in RD xenografts; format: in vivo, mouse; conditions: for phage binding to tumors versus any other organ: RD (or Rh4) xenografts, One-way ANOVA and Tukey-Kramer HSD
# Procedure: Figure 1 Validation of selected phages binding on RMS cells in vivo and in vitro. (A) Quantification of binding of single phage clones to different cell lines. Six phages selected from in vitro and in vivo screenings were validated individually in binding assays to three RMS cell lines (embryonal RMS: RD; alveolar RMS: Rh30 and Rh4) as well as to normal myoblasts (SkMC-c) and fibroblast cells (MRC-5). Phage clones are ordered according to the frequency of occurrence. Binding was calculated over non-recombinant T7, depicted are mean values ± SD of three independent experiments. (B) RMS-P3 and RMS-P6 phage distribution in RD mouse xenografts. Homing of phages to tumor was compared to control organs. Binding was normalized over phage T7 and tissue weight. Mean values ± SD of four independent experiments are shown. Numerical values for tumor to organ ratios are indicated above the bars. (C) Validation of RMS-P3 peptide sequence by competition of phage binding. 10^6 RD cells were incubated for 30 min with increasing concentrations of RMS-P3 peptide ([…]) or control peptide ([…]). Then, phages (10^9 pfu) were added for 1 h. Phage binding was normalized over non-recombinant T7. Data are presented as percentage of maximal phage binding obtained in the absence of synthetic peptide. Error bars indicate mean ± SD from three independent experiments. […] TEXT PRINTED IN THE PICTURE: (B) RMS-P6: tumor: 1; muscle: 1/6; kidney: 1/8; brain: 1/28; skin: 1/12 | (B) RMS-P3: tumor: 1; muscle: 1/24; kidney: 1/15; brain: 1/12; skin: 1/10 DOUBTS OF THE COPYIST ABOUT THIS PICTURE: Panel B: the picture prints no measure for the numbers over the bars. Each tissue name was assigned from the bar fill and the order of the printed key. / RMS-P6, brain: 1/28, the last digit may be 8 or 6 (small print)
# Phage (10^10 pfu) from in vitro biopannings were tail vein injected into mice bearing size-matched RMS tumors (500 mm^3) as described in [57].
# Rh4 xenograft tumors = assay: phage homing in Rh4 xenografts; format: in vivo, mouse; conditions: aRMS (Rh4) xenograft
# Procedure: as §4
# recombinant human furin [4] = assay: furin activity, fluorogenic substrate Boc-RRVR-AMC; format: biochemical
# Procedure: The enzymatic activity of furin was determined by the cleavage of the fluorogenic substrate Boc-RRVR-AMC (Alexis biochemicals) in presence or absence of peptides. Human recombinant furin (3.3U for reaction; Alexis biochemicals) was preincubated for 15 minutes at RT with the peptide RMS-P3/RR or the peptide RMS-P3/AA as negative control at increasing concentrations. For each assay, the same concentration of substrate (100 µM) was added to a solution containing 50 mM Tris HCl with 1 mM CaCl2 (pH 7) in a total volume of 100 µl. The reaction was followed for 1h while measuring the fluorescence every 10 minutes in a spectrofluorometer at excitation 370 nm/emission 460 nm.
# Rh4 cells = assay: phage binding to Rh4 cells; format: cell-based; conditions: three independent experiments
# Procedure: as §1
# Rh30 cells = assay: phage binding to Rh30 cells; format: cell-based; conditions: three independent experiments
# Procedure: as §1
# [5] = biological target: recombinant human furin without membrane-domain (81 kD) (human) (UniProt P09958)
molecule,measurement,setting,value
CMGTINTATAAC (disulfide 1-12 (inferred)) [RMS-P3/AA],decrease in phage binding compared to RMS-P3,"RD cells; alanine-scan, RD cells, three independent experiments, p<0.05",70 fold
same,peptide uptake in kidney,[1],found in the kidneys
same,peptide accumulation in tumor,[1]; cryosections,did not accumulate in the tumor; also recorded: No fluorescence was detectable
same,furin in competitive eluate from peptide column,membrane-bound furin,not the case
same,binding of recombinant furin to peptide column,recombinant human furin [2],did not bind recombinant furin
"CSPNNTRRPNKC (disulfide 1-12 (inferred)) [phage RMS-Pctrl, phage displaying […], arose spontaneously during the in vitro screening; negative control]",binding to tumor cells,[3],no binding to tumor cells
CMGTINTRTKKC (disulfide 1-12 (inferred)) [phage RMS-P3],phage binding to breast carcinoma cells,MDA-MB 231 cells,significant binding; also recorded: very good binding
same,phage binding to glioblastoma cells,U87MG cells,significant binding; also recorded: very good binding
same,phage binding to melanoma cells,A365 cells,significant binding; also recorded: very good binding
same,phage binding to tumors versus any other organ,RD xenograft tumors,bound significantly better to tumors than to any other organ
same,tumor/muscle ratio,"RD xenograft tumors; phage, eRMS (RD) xenograft",24 fold
same,tumor/muscle ratio,Rh4 xenograft tumors,24 fold
CMGTINTRTRRC (disulfide 1-12 (inferred)) [RMS-P3/RR],phage binding to RD cells compared to RMS-P3,"RD cells; both Lys replaced by Arg, One-way ANOVA, Tukey Kramer HSD, p<0.05 vs all other alanine mutants",no significant difference in binding to RD cells
same,furin in competitive eluate from peptide column,membrane-bound furin,competitive eluates contained detectable amounts of membrane-bound furin
same,binding of recombinant furin to peptide column,recombinant human furin [2],detected a furin band in the specific eluate
same,furin activity remaining,"recombinant human furin [4]; 100 µM peptide, % of the control, furin 3.3U, 15 min preincubation RT, substrate 100 µM, 50 mM Tris HCl, 1 mM CaCl2, pH 7, three independent experiments",14 % of the control
same,effect on furin activity,recombinant human furin [4]; increasing concentrations,concentration dependent decrease of furin activity
CMGTTNTRTKKC (disulfide 1-12 (inferred)) [RMS-P6],phage binding compared to non-recombinant phage T7,"RD cells; RD cells, three independent experiments",1270 fold
same,phage binding compared to non-recombinant phage T7,Rh4 cells,230 fold
same,phage binding compared to non-recombinant phage T7,Rh30 cells,120 fold
same,phage binding to tumors versus any other organ,RD xenograft tumors,bound significantly better to tumors than to any other organ
B1,furin activity (cleavage of the fluorogenic substrate Boc-RRVR-AMC by 3.3U recombinant furin) with increasing concentrations of RMS-P3/RR (10-100 µM); activity left at 100 µM (% of the control),[5],14

# — paper PMC2862740, “Furin Targeted Drug Delivery for Treatment of Rhabdomyosarcoma in a Mouse Model” (PLoS ONE, 2010)
